Data reported in article PMC5650142, “GPR40 partial agonists and AgoPAMs: Differentiating effects on glucose and hormonal secretions in the rodent” (PLoS ONE, 2017).
Several values for one entry are separate records, joined by “and”; a condition that tells them apart may be missing. Equal entries are not always repeated. Where two headings read alike, the source gives them in different places.

Legend:
human GPR40 [1] = target: T1, human GPR40 (Homo sapiens, UniProt O14842); assay: GPR40 binding assay, partial agonist tracer [3H]L358; set-up: expressed in transfected cells; host or cells: CHO / CHO-K1 cells, membrane preparation;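 as to %Bound: 100% is tracer binding with DMSO alone and 0% is full displacement by a standard compound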
T1 sequence (O14842 whole entry): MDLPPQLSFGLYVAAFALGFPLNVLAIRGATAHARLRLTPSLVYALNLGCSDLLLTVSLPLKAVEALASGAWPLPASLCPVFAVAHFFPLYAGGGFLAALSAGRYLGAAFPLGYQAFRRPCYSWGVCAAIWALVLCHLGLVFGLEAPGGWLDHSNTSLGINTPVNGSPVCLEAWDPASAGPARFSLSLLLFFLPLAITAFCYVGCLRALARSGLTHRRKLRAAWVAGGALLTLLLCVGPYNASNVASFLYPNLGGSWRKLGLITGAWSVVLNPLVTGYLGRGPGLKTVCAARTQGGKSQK
Procedure, shortened: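 Affinity at two allosterically coupled GPR40 sites was probed by displacement or enhancement of radiotracer: the partial agonist [3H]L358 and the AgoPAM [3H]25. Human GPR40 CHO-cell membranes (5 μg/well) on WGA SPA beads were incubated with compound and tracer at room temperature, then counted. Outputs: IC50 and maximal % bound.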

mouse GPR40 = target: T2, mouse GPR40 (Mus musculus, UniProt Q76JU9); assay: Mouse GPR40 IP1 accumulation assay; assay type: cell-based
T2 construct: expressed in transfected cells; host or cells: CHO-K1 (methods)
T2 sequence (Q76JU9 whole entry): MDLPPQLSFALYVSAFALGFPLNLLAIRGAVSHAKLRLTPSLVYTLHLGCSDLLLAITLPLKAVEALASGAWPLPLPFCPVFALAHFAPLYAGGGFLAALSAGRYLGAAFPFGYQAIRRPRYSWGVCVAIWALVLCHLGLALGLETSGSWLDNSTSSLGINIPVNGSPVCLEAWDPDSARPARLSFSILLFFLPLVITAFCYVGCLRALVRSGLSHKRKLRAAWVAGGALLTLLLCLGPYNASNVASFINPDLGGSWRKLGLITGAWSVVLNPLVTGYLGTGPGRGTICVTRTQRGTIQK
Procedure, shortened: (§1)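 IP1 accumulation is measured by HTRF after 60 min compound stimulation at room temperature in LiCl (50 mM)-containing buffer. Compounds run in ½-log dilutions from a final top concentration of 10 μM or 1 μM. Cells are hGPR40/HEK293, mGPR40/CHO-K1 and rGPR40/CHO-K1. Activity is scaled between DMSO and a partial allosteric agonist and fitted to a 4-parameter curve for EC50 and maximum.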

rat GPR40 = target: T3, rat GPR40 (Rattus norvegicus, UniProt Q8K3T4); assay: Rat GPR40 IP1 accumulation assay; assay type: cell-based
T3 construct: expressed in transfected cells; host or cells: CHO-K1 (methods)
T3 sequence (Q8K3T4 whole entry): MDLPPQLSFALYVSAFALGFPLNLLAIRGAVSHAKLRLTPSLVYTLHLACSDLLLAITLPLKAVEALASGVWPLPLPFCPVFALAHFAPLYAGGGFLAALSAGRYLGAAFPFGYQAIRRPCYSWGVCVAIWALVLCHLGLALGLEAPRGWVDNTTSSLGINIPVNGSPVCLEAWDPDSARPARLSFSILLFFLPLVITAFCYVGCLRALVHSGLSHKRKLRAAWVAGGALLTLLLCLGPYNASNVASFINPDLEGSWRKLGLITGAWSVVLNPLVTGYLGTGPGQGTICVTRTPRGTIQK
Procedure, shortened: as §1

human GPR40 [2] = target: T1, human GPR40; assay: Human GPR40 IP1 accumulation assay; assay type: cell-based; set-up: expressed in transfected cells
Procedure, shortened: as §1

[3] = radioligand L-001533358, dose 0.318285 nM
[4] = radioligand L-001533358, dose 1.00578 nM
[5] = radioligand L-001533358, dose 3.17827 nM
[6] = radioligand L-001533358, dose 10.0433 nM
[7] = radioligand L-001533358, dose 31.7369 nM
[8] = radioligand L-001533358, dose 100.289 nM
[9] = radioligand L-001533358, dose 316.912 nM
[10] = radioligand L-001533358, dose 1001.44 nM
[11] = radioligand L-001533358, dose 3164.56 nM
[12] = radioligand L-001533358, dose 10000 nM
[13] = maximal % activity vs in-house partial agonist control

Cc1cc(OCCCS(C)(=O)=O)cc(C)c1-c1cccc(COc2ccc3c(c2)OC[C@H]3CC(=O)O)c1 [TAK-875, reference compound]
HUMAN GPR40 Binding Data %Act (human GPR40 [1]; TAK875 sheet, individual replicates (n), tracer not given): 92% and 91% and 95% and 87% and 103% and 89% and 72% and 84% and 93% and 94%
Binding Results, % in parentheses, [^3H]L-358 (human GPR40 [1]; WT human GPR40, maximal % (not defined)): (91%)
binding of [^3H]L358 (human GPR40 [1]; human GPR40 membranes, competition binding): displace
% Bound Normalized to 100 (human GPR40 [1]; [3]): 100.25%
%Bound (human GPR40 [1]; [3]): 75.22%
inhibition at 0.000318285 µM (human GPR40 [1]; [3]): 15.4%
% Bound Normalized to 100 (human GPR40 [1]; [4]): 73.95%
%Bound (human GPR40 [1]; [4]): 48.92%
inhibition at 0.00100578 µM (human GPR40 [1]; [4]): 31.9%
% Bound Normalized to 100 (human GPR40 [1]; [5]): 83.61%
%Bound (human GPR40 [1]; [5]): 58.58%
inhibition at 0.00317827 µM (human GPR40 [1]; [5]): 49.3%
% Bound Normalized to 100 (human GPR40 [1]; [6]): 73.41%
%Bound (human GPR40 [1]; [6]): 48.38%
inhibition at 0.0100433 µM (human GPR40 [1]; [6]): 73.5%
% Bound Normalized to 100 (human GPR40 [1]; [7]): 43.62%
%Bound (human GPR40 [1]; [7]): 18.59%
inhibition at 0.0317369 µM (human GPR40 [1]; [7]): 84.4%
% Bound Normalized to 100 (human GPR40 [1]; [8]): 17.05%
%Bound (human GPR40 [1]; [8]): -7.97%
inhibition at 0.100289 µM (human GPR40 [1]; [8]): 102%
% Bound Normalized to 100 (human GPR40 [1]; [9]): 19.20%
%Bound (human GPR40 [1]; [9]): -5.83%
inhibition at 0.316912 µM (human GPR40 [1]; [9]): 111%
% Bound Normalized to 100 (human GPR40 [1]; [10]): 13.56%
%Bound (human GPR40 [1]; [10]): -11.46%
inhibition at 1.00144 µM (human GPR40 [1]; [10]): 105%
% Bound Normalized to 100 (human GPR40 [1]; [11]): 20.27%
%Bound (human GPR40 [1]; [11]): -4.75%
inhibition at 3.16456 µM (human GPR40 [1]; [11]): 111%
% Bound Normalized to 100 (human GPR40 [1]; [12]): 28.06%
%Bound (human GPR40 [1]; [12]): 3.03%
inhibition at 10 µM (human GPR40 [1]; [12]): 109%
Mouse GPR40 Receptor Activation (%) (mouse GPR40; dose 1.20E-10 M): -5.6%
Mouse GPR40 Receptor Activation (%) (mouse GPR40; dose 1.99E-06 M): 140%
Mouse GPR40 Receptor Activation (%) (mouse GPR40; dose 1.99E-07 M): 129%
Mouse GPR40 Receptor Activation (%) (mouse GPR40; dose 1.99E-08 M): 125%
Mouse GPR40 Receptor Activation (%) (mouse GPR40; dose 2.00E-09 M): 44%
Mouse GPR40 Receptor Activation (%) (mouse GPR40; dose 5.98E-07 M): 147%
Mouse GPR40 Receptor Activation (%) (mouse GPR40; dose 5.98E-08 M): 122%
Mouse GPR40 Receptor Activation (%) (mouse GPR40; dose 5.99E-09 M): 87%
Mouse GPR40 Receptor Activation (%) (mouse GPR40; dose 5.99E-10 M): 23%
Mouse GPR40 Functional Assay %Act (mouse GPR40; individual replicates (n)): 131% and 140% and 174% and 156% and 154% and 110% and 134% and 185% and 133% and 107% and 152%
EC50 (mouse GPR40; individual replicates (n), read-out: Mouse GPR40 Functional Assay EC50): 2.6 nM and 3.1 nM and 3.4 nM and 4.3 nM and 4.6 nM and 5.4 nM and 5.5 nM and 6.5 nM and 6.9 nM and 8.2 nM and 1.6 nM and 1.9 nM
Efficacy (% Activation), Mouse (mouse GPR40; [13]): (145%)
EC50 (mouse GPR40; mean ± SD, n = 2–20, IP accumulation, read-out: Potency [EC50, nM] ± SD, Mouse): 4.4 ± 2.1 nM
Rat GPR40 Receptor Activation (%) (rat GPR40; dose 1.20E-10 M): -1.85%
Rat GPR40 Receptor Activation (%) (rat GPR40; dose 1.99E-06 M): 186%
Rat GPR40 Receptor Activation (%) (rat GPR40; dose 1.99E-07 M): 172%
Rat GPR40 Receptor Activation (%) (rat GPR40; dose 1.99E-08 M): 148%
Rat GPR40 Receptor Activation (%) (rat GPR40; dose 2.00E-09 M): 65%
Rat GPR40 Receptor Activation (%) (rat GPR40; dose 5.98E-07 M): 173%
Rat GPR40 Receptor Activation (%) (rat GPR40; dose 5.98E-08 M): 144%
Rat GPR40 Receptor Activation (%) (rat GPR40; dose 5.99E-09 M): 117%
Rat GPR40 Receptor Activation (%) (rat GPR40; dose 5.99E-10 M): 23%
Rat GPR40 Functional Assay %Act (rat GPR40; individual replicates (n)): 129% and 176% and 138% and 164% and 159% and 199% and 148% and 141% and 177% and 150%
EC50 (rat GPR40; individual replicates (n), read-out: Rat GPR40 Functional Assay EC50): 5.5 nM and 6.1 nM and 8.7 nM and 9.9 nM and 11.6 nM and 12.4 nM and 13.4 nM and 3.2 nM and 2.7 nM and 4.1 nM
Efficacy (% Activation), Rat (rat GPR40; [13]): (158%)
EC50 (rat GPR40; mean ± SD, n = 2–20, IP accumulation, read-out: Potency [EC50, nM] ± SD, Rat): 7.8 ± 4 nM
Human GPR40 Receptor Activation (%) (human GPR40 [2]; dose 2.00E-06 M): 100%
Human GPR40 Receptor Activation (%) (human GPR40 [2]; dose 2.00E-07 M): 90%
Human GPR40 Receptor Activation (%) (human GPR40 [2]; dose 2.00E-08 M): 81%
Human GPR40 Receptor Activation (%) (human GPR40 [2]; dose 2.00E-09 M): 31%
Human GPR40 Receptor Activation (%) (human GPR40 [2]; dose 2.00E-10 M): -1.34%
Human GPR40 Receptor Activation (%) (human GPR40 [2]; dose 6.00E-07 M): 95%
Human GPR40 Receptor Activation (%) (human GPR40 [2]; dose 6.00E-08 M): 98%
Human GPR40 Receptor Activation (%) (human GPR40 [2]; dose 6.00E-09 M): 48%
Human GPR40 Receptor Activation (%) (human GPR40 [2]; dose 6.00E-10 M): 16%
Human GPR40 Receptor Activation (%) (human GPR40 [2]; dose 6.00E-11 M): 3.69%
HUMAN GPR40 Functional Assay %Act (human GPR40 [2]; individual replicates (n)): 122% and 82% and 93% and 96% and 99% and 104% and 130% and 79%
Efficacy (% Activation), Human (human GPR40 [2]; [13]): (102%)
